This is an account of results in US9914722B2, “Compounds for treating spinal muscular atrophy” (PTC Therapeutics Inc., priority 2012, dated 2018).

Data set [1] relates to full length SMN2 minigene mRNA containing SMN2 exon 7 (SMN2-A minigene). Description: SMN2 minigene mRNA splicing RT-qPCR assay in cultured cells. The format is cell-based, human. The note with it: for SMN2 minigene FL mRNA relative to vehicle / SMN2 minigene alternative splicing / exon 7 inclusion: HEK293H cells with SMN2-A minigene, 24 hr, RT-qPCR, FIG. 3; for EC (1.5-fold): Homo sapiens, HEK293-H, HEK293H cells stably transfected with SMN2-A minigene, 24 hours, 7-point concentration curve, concentration giving 1.5-fold SMN2 full length mRNA vs vehicle, read-out: EC1.5x for production of full length SMN2 mRNA. In short, it runs like this: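 HEK293H cells stably carrying the SMN2-A minigene were treated 24 h at 37 °C with a 7-point, 3.16-fold test compound series, in duplicate. Multiplex RT-qPCR measured exon 7-containing minigene FL mRNA, normalized to GAPDH and expressed relative to vehicle; EC1.5x is the concentration giving 1.5-fold FL mRNA.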

Regarding `C[C@@H]1CN(c2ccc3oc(-c4cn5ccccc5n4)cc(=O)c3c2)C[C@H](C)N1` [Cpd 17, 6-[(3R,5S)-3,5-dimethylpiperazin-1-yl]-2-(imidazo[1,2-a]pyridin-2-yl)-4H-chromen-4-one], the melting point lay in the range of 208 to 210 °C. In data set [1], the “SMN2 minigene FL mRNA relative to vehicle” value was “increased SMN2 minigene FL mRNA at low concentrations”, the “SMN2 minigene alternative splicing / exon 7 inclusion” value is given as “correction of SMN2 minigene alternative splicing” and the EC (1.5-fold) fell in the range of 1 to 3 µM.
For `COc1ccc(-c2cc(=O)c3cc(N4CCN[C@@H](C)C4)ccc3o2)cc1F` [Cpd 38, 2-(3-fluoro-4-methoxyphenyl)-6-[(3S)-3-methylpiperazin-1-yl]-4H-chromen-4-one] the same measures were 100 to 102 °C, “increased SMN2 minigene FL mRNA at low concentrations”, “correction of SMN2 minigene alternative splicing” and ≤ 0.1 µM.
